Measured values as given in patent US7795267B2, “Bicyclic piperazine compound having TGR23 antagonistic activity” (Takeda Pharmaceutical Company Limited, priority 2003, dated 2010).

Experiments:
[1] = test system: human colon cancer cell strain LS 174T; experiment: Inhibition of DNA synthesis by cancer cells ([methyl-3H]-thymidine uptake under TGR23 ligand stimulation); format: cell-based; details: LS174T, LS 174T cells, 10 nM TGR23 ligand, read-out: IC50 value of the test compound in DNA synthesis
Protocol: The cells of human colon cancer cell strain LS 174T (ATCC number: CL-188) were inoculated to a 96-well plate to a concentration of 20,000 cells per well, and then incubated in an EMEM medium (Nikken Biology and Medical Research Center) containing 0.05% bovine serum albumin not containing fatty acids (Sigma Chemical Co.) for 24 hours. After the 15-minute preincubation of these cells with the test compound, the cells were incubated in the presence of 10 nM of a TGR23 ligand [a human TGR23-2 ligand (1-20) represented by SEQ ID NO: 23 in WO 03/25179 was used] for 18 hours. Next, the cells were incubated in the presence of 0.25 μCi of [methyl-^3H]-thymidine (Amersham Biosciences KK) per well for 6 hours. The [methyl-^3H]-thymidine incorporated into the cancer cell DNA was measured in the following manner. After discarding the culture supernatant, 100 μL of ice-cold 10% trichloroacetic acid per well was added to the cells having taken up [methyl-^3H]-thymidine, and the cells were maintained on ice for 15 minutes. After discarding the trichloroacetic acid solution, 300 μL of a 0.2 N sodium hydroxide solution per well was added to the immobilized cells, and then the cells were kept warm overnight at 37° C. The amount of [methyl-^3H]-thymidine in the cell lysate was measured with a liquid scintillation counter.
The rate of DNA synthesis inhibition by the test compound was defined as the relative value obtained by subtracting the amount of [methyl-^3H]-thymidine uptake determined without stimulation from the uptake amount determined in the presence of the test compound and 10 nM of the TGR23 ligand, when the value obtained by subtracting the amount of [methyl-^3H]-thymidine uptake determined without stimulation from the uptake amount determined in the presence of the stimulation by 10 nM of the TGR23 ligand was taken as 100%. The IC50 value of the test compound in DNA synthesis was defined as the concentration of the test compound required to achieve 50% of the DNA synthesis inhibition rate.

[2] = test system: human colon cancer cell strain LS 174T; experiment: Cell growth inhibition (MTT method, TGR23 ligand stimulation); format: cell-based; details: LS174T, LS 174T cells, 10 nM TGR23 ligand, 24 hours, read-out: IC50 value of the test compound for cell growth
Protocol: The cells of human colon cancer cell strain LS 174T (ATCC number: CL-188) were inoculated in a 96-well plate to a concentration of 40,000 cells per well, and then the cells were incubated for 24 hours in an EMEM medium containing 0.05% bovine serum albumin not containing fatty acids. After a 15-minute pretreatment of these cells with the test compound, LS 174T cells were incubated for 24 hours in the presence of 10 nM of a TGR23 ligand [a human TGR23-2 ligand (1-20) represented by SEQ ID NO: 23 in WO 03/25179 was used]. Cell growth was evaluated by the MTT method. Cells were lysed by keeping them warm in an MTT solution (3-(4,5-dimethylthiazol-2-yl)-2,5-diphenyl tetrazolium bromide) at a final concentration of 0.5 mg/mL at 37° C. for 4 hours, and then in a 5% SDS solution at 37° C. for 24 hours. The absorbance of the cell lysate was measured using a 96-well plate reader. […]
The cell growth inhibitory rate of the test compound was defined as the relative value obtained by subtracting the absorbance change determined without stimulation from the absorbance change determined in the presence of the test compound and 10 nM of the TGR23 ligand, when the value obtained by subtracting the absorbance change determined without stimulation from the absorbance change determined in the presence of stimulation by 10 nM of the TGR23 ligand was taken as 100%. […]

Row | SMILES | IC50 [1] [nM] | IC50 [2] [nM]
1 | O=C(NCCN1CC=CCC1)N1CCN2C(=O)OC(c3ccccc3)(c3ccccc3)C2C1 (single isomer, unassigned; (+)) [Example 201, (+)-N-[2-(3,6-Dihydropyridin-1(2H)-yl)ethyl]-tetrahydro-3-oxo-1,1-diphenyl-3H-oxazolo[3,4-a]pyrazine-7(1H)-carboxamide] | ≤ 1000 | 
2 | O=C(NCc1ccccc1)N1CCN2C(=O)OC(c3ccccc3)(c3ccccc3)C2C1 (centres unmarked) [Example 17, Tetrahydro-3-oxo-1,1-diphenyl-N-(phenylmethyl)-3H-oxazolo[3,4-a]pyrazine-7(1H)-carboxamide] | ≤ 1000 | ≤ 1000
3 | O=C(NCc1ccc(F)cc1)N1CCN2C(=O)OC(c3ccccc3)(c3ccccc3)C2C1 (centres unmarked) [Example 25, N-[(4-Fluorophenyl)methyl]-tetrahydro-3-oxo-1,1-diphenyl-3H-oxazolo[3,4-a]pyrazine-7(1H)-carboxamide] | ≤ 1000 | ≤ 1000
4 | O=C(NCc1cccc(F)c1)N1CCN2C(=O)OC(c3ccccc3)(c3ccccc3)C2C1 (centres unmarked) [Example 28, N-[(3-Fluorophenyl)methyl]-tetrahydro-3-oxo-1,1-diphenyl-3H-oxazolo[3,4-a]pyrazine-7(1H)-carboxamide] | ≤ 1000 | 
5 | O=C(NCCN1CC=CCC1)N1CCN2C(=O)OC(c3ccccc3)(c3ccccc3)C2C1 (centres unmarked) [Example 85, N-[2-(3,6-Dihydropyridin-1(2H)-yl)ethyl]-tetrahydro-3-oxo-1,1-diphenyl-3H-oxazolo[3,4-a]pyrazine-7(1H)-carboxamide] | ≤ 1000 | 
6 | O=C(NCc1ccsc1)N1CCN2C(=O)OC(c3ccccc3)(c3ccccc3)C2C1 (centres unmarked) [Example 96, Tetrahydro-3-oxo-1,1-diphenyl-N-[(3-thienyl)methyl]-3H-oxazolo[3,4-a]pyrazine-7(1H)-carboxamide] | ≤ 1000 | 
7 | O=C(NCc1ccc(F)c(F)c1)N1CCN2C(=O)OC(c3ccccc3)(c3ccccc3)C2C1 (centres unmarked) [Example 97, N-[(3,4-Difluorophenyl)methyl]-tetrahydro-3-oxo-1,1-diphenyl-3H-oxazolo[3,4-a]pyrazine-7(1H)-carboxamide] | ≤ 1000 | 
8 | O=C(CCCN1CC=CCC1)N1CCN2C(=O)OC(c3ccccc3)(c3ccccc3)C2C1 (centres unmarked) [Example 138, 7-[4-(3,6-Dihydropyridin-1(2H)-yl)-1-oxobutyl]-hexahydro-1,1-diphenyl-3H-oxazolo[3,4-a]pyrazin-7(1H)-3-one] | ≤ 1000 | 
9 | O=C(NCCN1CCCCCC1)N1CCN2C(=O)OC(c3ccccc3)(c3ccccc3)C2C1 (centres unmarked) [Example 147, N-[2-(Hexahydro-1H-azepin-1-yl)ethyl]tetrahydro-3-oxo-1,1-diphenyl-3H-oxazolo[3,4-a]pyrazine-7(1H)-carboxamide] | ≤ 1000 | 
